Measured values reported in ChEMBL document CHEMBL4052785, “Discovery of (R)-5-(benzo[d][1,3]dioxol-5-yl)-7-((1-(vinylsulfonyl)pyrrolidin-2-yl)methyl)-7H-pyrrolo[2,3-d]pyrimidin-4-amine (B6) as a potent Bmx inhibitor for the treatment of NSCLC” (Bioorg Med Chem Lett, 2017).
≈ marks a conversion by molar mass, not a printed value.

Key:
[1] = organism: Homo sapiens; assay: Selectivity ratio of IC50 for human PDGFRalpha to IC50 for human full length N-terminal His6-tagged BMX
[2] = biological target: Tyrosine-protein kinase TXK (Homo sapiens, UniProt P42681); assay: Inhibition of recombinant human N-terminal His6-tagged TXK (256 to end residues) expressed in baculovirus Sf21 insect cells preincubated for 5 mins followed by substrate addition after 30 to 60 mins in presence of ATP by fluorescence assay
Sequence of Tyrosine-protein kinase TXK (P42681 whole entry): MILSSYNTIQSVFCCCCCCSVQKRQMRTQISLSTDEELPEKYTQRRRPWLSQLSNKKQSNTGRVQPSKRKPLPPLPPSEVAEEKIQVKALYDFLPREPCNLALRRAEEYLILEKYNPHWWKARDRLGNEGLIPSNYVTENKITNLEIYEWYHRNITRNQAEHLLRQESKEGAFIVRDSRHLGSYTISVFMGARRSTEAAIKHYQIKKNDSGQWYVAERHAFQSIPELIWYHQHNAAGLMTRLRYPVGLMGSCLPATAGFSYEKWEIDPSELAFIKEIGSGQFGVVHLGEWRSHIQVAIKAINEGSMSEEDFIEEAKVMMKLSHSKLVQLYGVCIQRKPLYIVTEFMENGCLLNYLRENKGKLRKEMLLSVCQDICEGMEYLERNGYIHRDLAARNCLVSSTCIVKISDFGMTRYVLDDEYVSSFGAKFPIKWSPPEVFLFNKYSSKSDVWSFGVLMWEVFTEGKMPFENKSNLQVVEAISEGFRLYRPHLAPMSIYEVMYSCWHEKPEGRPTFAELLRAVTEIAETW

[3] = organism: Homo sapiens; assay: Selectivity ratio of IC50 for recombinant human N-terminal His6-tagged ABL (27 to end residues) to IC50 for human full length N-terminal His6-tagged BMX
[4] = test system: Mus musculus; assay: Toxicity in nude mouse xenografted with human NCI-H1975 cells assessed as abnormal behavior at 25 mg/kg administered qd via oral gavage for 18 days measured on day 14; assay type: organism-based; details: in vivo, 432 h
[5] = biological target: Tyrosine-protein kinase Lck (Homo sapiens, UniProt P06239); assay: Inhibition of recombinant human full length N-terminal His6-tagged LCK expressed in Sf21 insect cells preincubated for 5 mins followed by substrate addition after 30 to 60 mins in presence of ATP by fluorescence assay
Sequence of Tyrosine-protein kinase Lck (P06239 whole entry): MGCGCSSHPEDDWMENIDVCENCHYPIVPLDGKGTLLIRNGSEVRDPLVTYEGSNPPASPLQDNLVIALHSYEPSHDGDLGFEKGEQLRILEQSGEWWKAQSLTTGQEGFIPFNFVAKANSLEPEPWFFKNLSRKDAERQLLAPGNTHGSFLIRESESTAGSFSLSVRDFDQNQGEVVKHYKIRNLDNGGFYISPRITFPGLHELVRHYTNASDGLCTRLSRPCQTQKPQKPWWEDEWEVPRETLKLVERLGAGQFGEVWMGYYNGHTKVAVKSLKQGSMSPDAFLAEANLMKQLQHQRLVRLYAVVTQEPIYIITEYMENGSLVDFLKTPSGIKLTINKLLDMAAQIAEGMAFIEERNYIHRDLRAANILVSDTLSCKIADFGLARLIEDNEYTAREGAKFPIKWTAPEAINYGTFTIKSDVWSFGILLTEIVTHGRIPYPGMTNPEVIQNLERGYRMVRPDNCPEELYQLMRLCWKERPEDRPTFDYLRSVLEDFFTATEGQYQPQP

[6] = organism: Homo sapiens; assay: Selectivity ratio of IC50 for recombinant human N-terminal His6-tagged FER (541 to end residues) to IC50 for human full length N-terminal His6-tagged BMX
[7] = organism: Homo sapiens; assay: Selectivity ratio of IC50 for recombinant human N-terminal His6-tagged EGFR (696 to end residues) to IC50 for human full length N-terminal His6-tagged BMX
[8] = biological target: Tyrosine-protein kinase JAK1 (Homo sapiens, UniProt P23458); assay: Inhibition of human JAK1 expressed in baculovirus in Sf21 insect cells preincubated for 5 mins followed by substrate addition after 30 to 60 mins in presence of ATP by fluorescence assay
Sequence of Tyrosine-protein kinase JAK1 (P23458 whole entry, the tested form may be a part): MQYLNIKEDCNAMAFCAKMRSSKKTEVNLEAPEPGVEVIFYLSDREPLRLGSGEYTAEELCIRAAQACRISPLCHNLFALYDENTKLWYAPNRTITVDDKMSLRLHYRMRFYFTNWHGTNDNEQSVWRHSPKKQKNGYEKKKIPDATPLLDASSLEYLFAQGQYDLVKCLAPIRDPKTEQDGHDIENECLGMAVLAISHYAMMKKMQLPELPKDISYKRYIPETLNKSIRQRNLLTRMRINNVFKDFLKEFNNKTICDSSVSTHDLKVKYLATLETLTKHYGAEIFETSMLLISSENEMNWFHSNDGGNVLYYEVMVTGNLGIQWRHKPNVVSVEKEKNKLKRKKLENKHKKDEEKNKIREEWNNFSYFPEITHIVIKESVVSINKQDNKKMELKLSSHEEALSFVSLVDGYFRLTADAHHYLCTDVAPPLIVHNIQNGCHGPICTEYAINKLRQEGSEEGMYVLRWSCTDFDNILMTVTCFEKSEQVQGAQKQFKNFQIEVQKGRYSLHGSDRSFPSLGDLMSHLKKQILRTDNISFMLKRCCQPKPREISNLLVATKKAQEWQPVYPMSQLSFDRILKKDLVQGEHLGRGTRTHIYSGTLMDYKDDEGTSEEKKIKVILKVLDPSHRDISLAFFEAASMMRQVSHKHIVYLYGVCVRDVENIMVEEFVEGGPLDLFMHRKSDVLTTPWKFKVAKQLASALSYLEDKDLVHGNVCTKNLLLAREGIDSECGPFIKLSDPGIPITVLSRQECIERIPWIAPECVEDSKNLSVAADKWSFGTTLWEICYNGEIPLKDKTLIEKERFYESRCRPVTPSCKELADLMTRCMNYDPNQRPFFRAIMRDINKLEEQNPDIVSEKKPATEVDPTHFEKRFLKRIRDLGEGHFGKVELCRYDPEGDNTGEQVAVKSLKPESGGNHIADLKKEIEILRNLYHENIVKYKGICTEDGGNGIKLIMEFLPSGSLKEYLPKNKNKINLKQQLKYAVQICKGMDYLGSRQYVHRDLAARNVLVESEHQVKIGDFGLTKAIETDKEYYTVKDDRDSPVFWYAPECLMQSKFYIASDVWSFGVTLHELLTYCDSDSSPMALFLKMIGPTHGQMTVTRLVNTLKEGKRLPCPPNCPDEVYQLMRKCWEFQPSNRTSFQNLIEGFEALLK

[9] = organism: Homo sapiens; assay: Selectivity ratio of IC50 for recombinant human N-terminal His6-tagged ITK (352 to 617 residues) to IC50 for human full length N-terminal His6-tagged BMX
[10] = organism: Homo sapiens; assay: Selectivity ratio of IC50 for recombinant human full length N-terminal His6-tagged SYK to IC50 for human full length N-terminal His6-tagged BMX
[11] = organism: Homo sapiens; assay: Selectivity ratio of IC50 for human N-terminal 6His-tagged HER4 (706 to 991 residues) to IC50 for human full length N-terminal His6-tagged BMX
[12] = organism: Homo sapiens; assay: Selectivity ratio of IC50 for recombinant human N-terminal His6-tagged FRK (218 to end residues) to IC50 for human full length N-terminal His6-tagged BMX
[13] = organism: Homo sapiens; assay: Selectivity ratio of IC50 for recombinant human N-terminal His6-tagged JAK3 (781 to end residues) to IC50 for human full length N-terminal His6-tagged BMX
[14] = biological target: Tyrosine-protein kinase Blk (Homo sapiens, UniProt P51451); assay: Inhibition of BLK (unknown origin) preincubated for 5 mins followed by substrate addition after 30 to 60 mins in presence of ATP by fluorescence assay
Sequence of Tyrosine-protein kinase Blk (P51451 whole entry): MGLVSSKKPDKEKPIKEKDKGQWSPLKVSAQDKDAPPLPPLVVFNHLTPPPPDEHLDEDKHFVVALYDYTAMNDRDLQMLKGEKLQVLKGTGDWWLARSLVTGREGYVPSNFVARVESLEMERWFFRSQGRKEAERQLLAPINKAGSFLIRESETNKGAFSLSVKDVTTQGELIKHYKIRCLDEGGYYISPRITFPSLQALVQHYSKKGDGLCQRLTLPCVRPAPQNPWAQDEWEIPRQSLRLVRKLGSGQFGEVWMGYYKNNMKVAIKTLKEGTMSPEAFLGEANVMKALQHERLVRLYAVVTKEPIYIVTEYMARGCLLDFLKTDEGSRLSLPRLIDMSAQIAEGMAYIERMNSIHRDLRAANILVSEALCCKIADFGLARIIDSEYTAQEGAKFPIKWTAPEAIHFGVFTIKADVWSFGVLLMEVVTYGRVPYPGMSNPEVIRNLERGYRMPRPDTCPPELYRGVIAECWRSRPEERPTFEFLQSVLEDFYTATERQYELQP

[15] = biological target: Serine/threonine-protein kinase Nek2 (Homo sapiens, UniProt P51955); assay: Inhibition of recombinant human full length N-terminal His6-tagged NEK2 expressed in baculovirus Sf21 insect cells preincubated for 5 mins followed by substrate addition after 30 to 60 mins in presence of ATP by fluorescence assay
Sequence of Serine/threonine-protein kinase Nek2 (P51955 whole entry): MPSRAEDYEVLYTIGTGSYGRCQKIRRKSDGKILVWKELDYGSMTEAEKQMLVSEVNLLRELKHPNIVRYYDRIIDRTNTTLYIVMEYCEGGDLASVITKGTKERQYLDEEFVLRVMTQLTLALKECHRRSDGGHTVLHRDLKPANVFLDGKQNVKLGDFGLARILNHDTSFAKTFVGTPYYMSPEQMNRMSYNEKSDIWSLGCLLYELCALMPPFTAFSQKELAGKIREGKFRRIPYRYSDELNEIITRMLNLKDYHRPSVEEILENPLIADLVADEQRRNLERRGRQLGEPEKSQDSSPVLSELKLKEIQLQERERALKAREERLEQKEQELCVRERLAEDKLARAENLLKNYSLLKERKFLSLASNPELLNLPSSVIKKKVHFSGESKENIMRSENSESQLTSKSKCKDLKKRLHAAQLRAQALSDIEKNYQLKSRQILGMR

[16] = test system: HCC827; assay: Antiproliferative activity against human HCC827 cells harboring EGFR Del19 mutant after 72 hrs by MTT assay; assay type: functional, cell-based; details: HCC827, 72 h
[17] = biological target: Receptor tyrosine-protein kinase erbB-2 (Homo sapiens, UniProt P04626); assay: Inhibition of human C-terminal 6His-tagged Her2 (676 to end) expressed in baculovirus Sf21 insect cells preincubated for 5 mins followed by biotinyl-beta Abeta Abeta AAEEEEYFELVAKKK substrate addition after 30 to 60 mins in presence of ATP by fluorescence assay
[18] = organism: Homo sapiens; assay: Selectivity ratio of IC50 for recombinant human C-terminal His6-tagged JAK2 (808 to end residues) to IC50 for human full length N-terminal His6-tagged BMX
[19] = biological target: Tyrosine-protein kinase BTK (Homo sapiens, UniProt Q06187); assay: Inhibition of recombinant human full length N-terminal His6-tagged BTK expressed in baculovirus Sf21 insect cells preincubated for 5 mins followed by LSNLYHQGKFLQT substrate addition after 30 to 60 mins in presence of ATP by fluorescence assay
[20] = biological target: Receptor tyrosine-protein kinase erbB-4 (Homo sapiens, UniProt Q15303); assay: Inhibition of human N-terminal 6His-tagged HER4 (706 to 991 residues) preincubated for 5 mins followed by substrate addition after 30 to 60 mins in presence ATP of fluorescence assay
[21] = biological target: Tyrosine-protein kinase Fyn (Homo sapiens, UniProt P06241); assay: Inhibition of recombinant human full length N-terminal His6-tagged FYN expressed in baculovirus Sf21 insect cells preincubated for 5 mins followed by biotinyl-beta Abeta Abeta AYQAEENTYDEYEN substrate addition after 30 to 60 mins in presence of ATP by fluorescence assay
[22] = biological target: Serine/threonine-protein kinase PLK1 (Homo sapiens, UniProt P53350); assay: Inhibition of recombinant human N-terminal His6-tagged PLK1 expressed in baculovirus Sf21 insect cells preincubated for 5 mins followed by substrate addition after 30 to 60 mins in presence of ATP by fluorescence assay
Sequence of Serine/threonine-protein kinase PLK1 (P53350 whole entry): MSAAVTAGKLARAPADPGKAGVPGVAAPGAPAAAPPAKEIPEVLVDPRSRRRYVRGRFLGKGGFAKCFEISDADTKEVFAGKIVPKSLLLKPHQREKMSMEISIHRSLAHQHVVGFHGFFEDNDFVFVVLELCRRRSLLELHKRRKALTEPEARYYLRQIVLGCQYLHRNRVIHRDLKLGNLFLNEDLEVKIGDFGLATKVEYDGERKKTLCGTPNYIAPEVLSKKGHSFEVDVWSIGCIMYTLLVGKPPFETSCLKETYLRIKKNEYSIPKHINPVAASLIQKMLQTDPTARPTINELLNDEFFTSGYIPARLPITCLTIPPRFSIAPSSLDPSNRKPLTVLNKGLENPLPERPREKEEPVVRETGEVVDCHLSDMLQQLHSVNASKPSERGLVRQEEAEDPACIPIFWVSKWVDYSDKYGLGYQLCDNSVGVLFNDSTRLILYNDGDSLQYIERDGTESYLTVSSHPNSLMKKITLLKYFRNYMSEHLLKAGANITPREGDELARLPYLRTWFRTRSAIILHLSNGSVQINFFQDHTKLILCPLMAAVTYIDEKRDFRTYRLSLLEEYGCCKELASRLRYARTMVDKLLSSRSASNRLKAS

[23] = biological target: Epidermal growth factor receptor (Homo sapiens, UniProt P00533); assay: Inhibition of recombinant human N-terminal GST-tagged EGFR (696 to end residues) expressed in baculovirus Sf21 insect cells preincubated for 5 mins followed by substrate addition after 30 to 60 mins in presence of ATP by fluorescence assay
[24] = Aqueous solubility of the compound at 1 mg; assay type: physicochemical
[25] = biological target: Tyrosine-protein kinase HCK (Homo sapiens, UniProt P08631); assay: Inhibition of recombinant human N-terminal His6-tagged HCK (230 to 497 residues) expressed in baculovirus Sf21 insect cells preincubated for 5 mins followed by substrate addition after 30 to 60 mins in presence of ATP by fluorescence assay
[26] = biological target: Platelet-derived growth factor receptor alpha (Homo sapiens, UniProt P16234); assay: Inhibition of human PDGFRalpha expressed in baculovirus Sf21 insect cells preincubated for 5 mins followed by substrate addition after 30 to 60 mins in presence of ATP by fluorescence assay
[27] = biological target: Tyrosine-protein kinase Lyn (Homo sapiens, UniProt P07948); assay: Inhibition of recombinant human full length N-terminal His6-tagged LYN expressed in Sf21 insect cells preincubated for 5 mins followed by […] substrate addition after 30 to 60 mins in presence of ATP by fluorescence assay
[28] = biological target: Macrophage colony-stimulating factor 1 receptor (Homo sapiens, UniProt P07333); assay: Inhibition of recombinant human N-terminal His6-tagged FMS (538 to end residues) expressed in baculovirus Sf21 insect cells preincubated for 5 mins followed by substrate addition after 30 to 60 mins in presence of ATP by fluorescence assay
Sequence of Macrophage colony-stimulating factor 1 receptor (P07333 whole entry): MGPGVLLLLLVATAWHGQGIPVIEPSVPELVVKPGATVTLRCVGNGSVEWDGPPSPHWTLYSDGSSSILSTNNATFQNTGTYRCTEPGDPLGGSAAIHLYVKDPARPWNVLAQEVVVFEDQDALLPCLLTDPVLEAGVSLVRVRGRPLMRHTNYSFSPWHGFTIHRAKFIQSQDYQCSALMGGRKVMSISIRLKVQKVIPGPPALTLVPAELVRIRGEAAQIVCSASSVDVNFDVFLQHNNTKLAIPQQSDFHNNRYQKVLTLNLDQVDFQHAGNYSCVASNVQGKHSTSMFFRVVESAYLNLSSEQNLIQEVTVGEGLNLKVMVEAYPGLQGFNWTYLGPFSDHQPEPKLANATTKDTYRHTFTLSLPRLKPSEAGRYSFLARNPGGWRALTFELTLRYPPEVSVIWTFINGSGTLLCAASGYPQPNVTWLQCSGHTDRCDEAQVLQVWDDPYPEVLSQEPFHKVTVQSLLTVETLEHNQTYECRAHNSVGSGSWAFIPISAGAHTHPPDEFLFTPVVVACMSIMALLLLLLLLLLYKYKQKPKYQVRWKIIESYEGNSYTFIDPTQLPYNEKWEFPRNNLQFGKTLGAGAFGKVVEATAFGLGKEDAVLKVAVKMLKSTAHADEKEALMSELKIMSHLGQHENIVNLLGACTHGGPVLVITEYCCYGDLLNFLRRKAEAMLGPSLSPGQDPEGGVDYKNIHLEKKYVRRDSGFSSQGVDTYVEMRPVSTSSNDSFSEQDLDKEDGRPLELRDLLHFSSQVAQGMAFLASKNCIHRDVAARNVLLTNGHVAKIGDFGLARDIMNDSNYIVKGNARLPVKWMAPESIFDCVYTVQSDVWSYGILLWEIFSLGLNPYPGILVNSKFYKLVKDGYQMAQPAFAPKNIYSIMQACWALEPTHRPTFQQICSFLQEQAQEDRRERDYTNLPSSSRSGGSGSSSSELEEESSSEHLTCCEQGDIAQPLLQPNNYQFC

[29] = organism: Homo sapiens; assay: Selectivity ratio of IC50 for recombinant human N-terminal His6-tagged FMS (538 to end residues) to IC50 for human full length N-terminal His6-tagged BMX

Ratio IC50 [1]: > 280 | IC50 [2]: 883 nM | Ratio IC50 [3]: 22.5 | IC50 [5]: 195 nM | Ratio IC50 [6]: 166 | Ratio IC50 [7]: 18 | IC50 [8]: > 10000 nM | Ratio IC50 [9]: 158 | Ratio IC50 [10]: > 280 | Ratio IC50 [11]: 28.1 | Ratio IC50 [12]: 14.3 | Ratio IC50 [13]: 229 | IC50 [14]: 76.4 nM | IC50 [15]: > 10000 nM | IC50 [16]: 14 nM | IC50 [17]: 1350 nM | Ratio IC50 [18]: > 280 | IC50 [19]: 88.6 nM | IC50 [20]: 1000 nM | IC50 [21]: 430 nM | IC50 [22]: > 10000 nM | IC50 [23]: 643 nM | solubility [24]: 100 µg/mL (≈ 234 µM) | IC50 [25]: 199 nM | IC50 [26]: > 10000 nM | IC50 [27]: 312 nM | IC50 [28]: 4700 nM | Ratio IC50 [29]: 114
Structure (SMILES): C=CS(=O)(=O)N1CCC[C@@H]1Cn1cc(-c2ccc3c(c2)OCO3)c2c(N)ncnc21
Activity [4]: Non-Toxic
